Among the data in patent US20140057895A1, “INDAZOLE- AND PYRROLOPYRIDINE-DERIVATIVE AND PHARMACEUTICAL USE THEREOF” (priority 2011, published 2014) are IC50 values, retold here.

Each structure is given as a SMILES string. Counter-ions that a name gives are not always drawn. Bounds are passed on as bounds.

T1 sequence (O70528 whole entry): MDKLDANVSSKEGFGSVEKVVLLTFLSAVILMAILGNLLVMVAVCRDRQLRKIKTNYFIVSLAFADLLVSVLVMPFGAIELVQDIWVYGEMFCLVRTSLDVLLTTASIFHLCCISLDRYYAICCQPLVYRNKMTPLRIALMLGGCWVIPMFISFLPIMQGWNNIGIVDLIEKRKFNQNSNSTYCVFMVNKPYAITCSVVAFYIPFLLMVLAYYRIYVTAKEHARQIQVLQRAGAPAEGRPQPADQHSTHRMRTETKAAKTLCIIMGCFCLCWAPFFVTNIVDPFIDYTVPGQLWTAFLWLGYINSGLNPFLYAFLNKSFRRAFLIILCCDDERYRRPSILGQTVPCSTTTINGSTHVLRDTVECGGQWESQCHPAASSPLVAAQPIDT

The experiment has as its target T1, 5-HT4 receptor (Cavia porcellus, UniProt O70528).
T1 construct: striatum was isolated which was cryopreserved at −80° C. until use; from tissue; host or cells: guinea pig (Slc-Hartley) striatum membranes
Briefly: Test Example 3: Guinea pig 5-HT4 receptor binding assay, [3H]-GR113808, striatum membranes (Table 98). Particulars: Guinea pig 5-HT4 receptor binding assay, [3H]-GR113808, striatum membranes; mean value of each group; read-out: IC50. On the procedure: The guinea pig 5-HT4 receptor binding assay and preparations of receptor membrane preparations herein were carried out according to a method of Grossman et al. [see, British J. Pharmacol., (1993) 109, 618].
Slc-Hartley guinea pigs (body weight 300 g to 400 g) were decapitated to remove brain rapidly, and striatum was isolated which was cryopreserved at −80° C. until use. To the obtained tissues were added fifteen fold of Hepes buffer (50 mM, pH 7.4, 4° C.), and the mixture was homogenized by Teflon (trademark) homogenizer and centrifuged at 48,000×g (4° C.) for 15 minutes. To the resulting precipitate was added Hepes buffer (1 ml) to 30 mg by wet weight of tissues, and the mixture was suspended to give receptor membrane preparations.
To an assay tube were added 0.1 nM [^3H]-GR113808 {chemical name: [1-[2-(methylsulfonylamino) ethyl]-4-piperidinyl]methyl 1-methylindole-3-carboxylate}, receptor membrane preparations, and Hepes buffer (50 mM, pH 7.4, 4° C., 1 ml) containing test compounds or 30 μM serotonin; and the mixture was incubated at 37° C. for 30 minutes. On quenching the reaction, the mixture was rapidly filtered on whatman GF/B filter, which was presoaked in 0.1% polyethyleneimine for 1 hour, by using Brandel cell Harvester, and washed with ice-cooled 50 mM Tris-HCl (pH 7.7, 4 ml) three times. To the filter after filtration was added a liquid scintillator (Ecoscint), and then a radioactivity was determined by a liquid scintillation counter.
50% Inhibition concentrations (IC50) were determined from inhibition rates of test compounds to specific bindings which were obtained by subtracting nonspecific bindings from total binding amounts of [^3H]-GR113808. […]
Usually IC50 stands for the concentration that inhibits the measured activity by half. On to `CCc1nn(-c2noc(C3CCN(C4CCOCC4)CC3)n2)c2cc(C)ccc12` [Example 437, 3-ethyl-6-methyl-1-{5-[1-(tetrahydro-2H-pyran-4-yl)piperidin-4-yl)-1,2,4-oxadiazol-3-yl}-1H-indazole trifluoroacetate], for which the IC50 was 113 nM.
`COc1cccc2c(C(C)C)nn(-c3noc(C4CCN(C5CCC5)CC4)n3)c12` [Example 440, 1-[5-(1-cyclobutylpiperidin-4-yl)-1,2,4-oxadiazol-3-yl]-7-methoxy-3-(propan-2-yl)-1H-indazole]: the concentration for half-maximal inhibition (IC50) worked out at 104 nM.
As to `COc1cccc2c(C(C)C)nn(-c3noc(C4CCN(C5CCOCC5)CC4)n3)c12` [Example 441, 7-methoxy-3-(propan-2-yl)-1-{5-[1-(tetrahydro-2H-pyran-4-yl)piperidin-4-yl]-1,2,4-oxadiazol-3-yl}-1H-indazole], the IC50 was 78.2 nM.
In the case of `CC(C)c1nn(-c2noc(C3CCN(C4CCC(F)(F)CC4)CC3)n2)c2c(F)cccc12` [Example 442, 1-{5-[1-(4,4-difluorocyclohexyl)piperidin-4-yl]-1,2,4-oxadiazol-3-yl}-7-fluoro-3-(propan-2-yl)-1H-indazole], the IC50 was less than 20 nM.
For the molecule `CC(C)c1nn(-c2noc(C3CCN(C4CC[S+]([O-])CC4)CC3)n2)c2c(F)cccc12` (stereo not drawn) [Example 443, 7-fluoro-1-{5-[1-(1-oxidotetrahydro-2H-thiopyran-4-yl)piperidin-4-yl]-1,2,4-oxadiazol-3-yl}-3-(propan-2-yl)-1H-indazole], the IC50 came out at 18.1 nM.
For `CCc1nn(-c2noc(C3CCN(C4CCC4)CC3)n2)c2c(F)c(F)ccc12` [Example 446, 1-[5-(1-cyclobutylpiperidin-4-yl)-1,.2,4-oxadiazol-3-yl]-3-ethyl-6,7-difluoro-1H-indazole-trifluoroacetate], the IC50 is less than 20 nM.
Under `CC(C)c1nn(-c2noc(C3CCN(C4CCCC4)CC3)n2)c2c(F)c(F)ccc12` [Example 452, 1-[5-(1-cyclopentylpiperidin-4-yl)-1,2,4-oxadiazol-3-yl]-6,7-difluoro-3-(propan-2-yl)-1H-indazole trifluoroacetate] stands less than 20 nM; under `CC(C)c1nn(-c2noc(C3CCN(CC4CCOCC4)CC3)n2)c2c(F)c(F)ccc12` [Example 453, 6,7-difluoro-3-(propan-2-yl)-1-{5-[1-(tetrahydro-2H-pyran-4-ylmethyl)piperidin-4-yl]-1,2,4-oxadiazol-3-yl}-1H-indazole trifluoroacetate], 28.1 nM; under `CC(C)c1nn(-c2noc(C3CCN(C4CCOCC4)CC3)n2)c2c(F)c(F)ccc12` [Example 454, 6,7-difluoro-3-(propan-2-yl)-1-{5-[1-(tetrahydro-2H-pyran-4-yl)piperidin-4-yl]-1,2,4-oxadiazol-3-yl}-1H-indazole trifluoroacetate], less than 20 nM.
`CC(C)c1nn(-c2noc(C3CCN(C4CCOCC4)C3)n2)c2c(F)cccc12` (stereo not drawn) [Example 456, 7-fluoro-3-(propan-2-yl)-1-{5-[1-(tetrahydro-2H-pyran-4-yl)pyrrolidin-3-yl]-1,2,4-oxadiazol-3-yl}-1H-indazole]: the IC50 is less than 20 nM.
As for `CC(=O)N1CCC(N2CCC(c3nc(-n4nc(C(C)C)c5ccc(C)cc54)no3)CC2)CC1` [Example 462, 1-(4-{3-[6-methyl-3-(propan-2-yl)-1H-indazol-1-yl]-1,2,4-oxadiazol-5-yl}-1,4′-bipiperidin-1′-yl}ethanone trifluoroacetate], the IC50 worked out at 109 nM.
In the case of `COCC(=O)N1CCC(N2CCC(c3nc(-n4nc(C(C)C)c5ccc(F)c(F)c54)no3)CC2)CC1` [Example 465, 1-(4-{3-[6,7-difluoro-3-(propan-2-yl)-1H-indazol-1-yl]-1,2,4-oxadiazol-5-yl}-1,4′-bipiperidin-1′-yl)-2-methoxyethanone trifluoroacetate], the IC50 is less than 20 nM.
With `CC(C)c1nn(-c2noc(C3CCN(C4CCN(S(C)(=O)=O)CC4)CC3)n2)c2c(F)cccc12` [Example 466, 4-{3-[7-fluoro-3-(propan-2-yl)-1H-indazol-1-yl]-1,2,4-oxadiazol-5-yl}-1′-(methylsulfonyl)-1,4′-bipiperidine trifluoroacetate], the IC50 was less than 20 nM.
For `CC(=O)N1CC(CN2CCC(c3nc(-n4nc(C(C)C)c5ccc(C)cc54)no3)CC2)C1` [Example 471, 1-{3-[(4-{3-[6-methyl-3-(propan-2-yl)-1H-indazol-1-yl]-1,2,4-oxadiazol-5-yl}piperidin-1-yl)methyl]azetidin-1-yl}ethanone trifluoroacetate], the IC50 was found to be 173 nM.
For `CCc1nn(-c2noc(C3CCN(CC4CCN(C(=O)OC)CC4)CC3)n2)c2c(F)c(F)ccc12` [Example 476, methyl 4-({4-[3-(3-ethyl-6,7-difluoro-1H-indazol-1-yl)-1,2,4-oxadiazol-5-yl]piperidin-1-yl}methyl)piperidin-1-carboxylate trifluoroacetate] the value was less than 20 nM.
In the case of `CC(=O)N1CCC(CN2CCC(c3nc(-n4nc(C(C)C)c5ccc(C)cc54)no3)CC2)CC1` [Example 479, 1-{4-[(4-{3-[6-methyl-3-(propan-2-yl)-1H-indazol-1-yl]-1,2,4-oxadiazol-5-yl}piperidin-1-yl)methyl]piperidin-1-yl}ethanone trifluoroacetate], the IC50 stood at 94.6 nM.
On to `CC(=O)N1CCC(CN2CCC(c3nc(-n4nc(C(C)C)c5ccc(F)c(F)c54)no3)CC2)CC1` [Example 480, 1-{4-[(4-{3-[6,7-difluoro-3-(propan-2-yl)-1H-indazol-1-yl]-1,2,4-oxadiazol-5-yl}piperidin-1-yl)methyl]piperidin-1-yl}ethanone trifluoroacetate], for which the IC50 turned out to be 27.5 nM.
`CC(=O)N1CCOC(CN2CCC(c3nc(-n4nc(C(C)C)c5cccc(F)c54)no3)CC2)C1` (stereo not drawn) [Example 483, 1-{2-[(4-{3-[7-fluoro-3-(propan-2-yl)-1H-indazol-1-yl]-1,2,4-oxadiazol-5-yl}piperidin-1-yl)methyl]morpholin-4-yl}ethanone]: the IC50 was 35.7 nM.
With `COC(=O)N1CCOC(CN2CCC(c3nc(-n4nc(C(C)C)c5cccc(F)c54)no3)CC2)C1` (stereo not drawn) [Example 484, methyl 2-[(4-{3-[7-fluoro-3-(propan-2-yl)-1H-indazol-1-yl]-1,2,4-oxadiazol-5-yl}piperidin-1-yl)methyl]morpholine-4-carboxylate], the IC50 was 28.1 nM.
Under `CC(C)c1nn(-c2noc(C3CCN(CC4CN(C(=O)N(C)C)CCO4)CC3)n2)c2c(F)cccc12` (stereo not drawn) [Example 485, 2-[(4-{3-[7-fluoro-3-(propan-2-yl)-1H-indazol-1-yl]-1,2,4-oxadiazol-5-yl}piperidin-1-yl)methyl]-N,N-dimethylmorpholine-4-carboxamide] stands 21.2 nM; under `CC(C)c1nn(-c2noc(C3CCN(CC4CN(S(C)(=O)=O)CCO4)CC3)n2)c2c(F)cccc12` (stereo not drawn) [Example 486, 7-fluoro-1-[5-(1-{[4-(methylsulfonyl)morpholin-2-yl]methyl}piperidin-4-yl)-1,2,4-oxadiazol-3-yl]-3-(propan-2-yl)-1H-indazole], less than 20 nM.
For `CC(=O)N1CCC(N2CC[C@H](Cc3nc(-n4nc(C(C)C)c5cccc(F)c54)no3)C2)CC1` [Example 495, 1-{4-[(3R)-3-({3-[7-fluoro-3-(propan-2-yl)-1H-indazol-1-yl]-1,2,4-oxadiazol-5-yl}methyl)pyrrolidin-1-yl]piperidin-1-yl}ethanone] the value was less than 20 nM.
With `C=C(C)c1nn(-c2noc(C3CCN(C4CCN(C(=O)CO)CC4)CC3)n2)c2c(F)cccc12` [Example 521, 1-(4-{3-[7-fluoro-3-(prop-1-en-2-yl)-1H-indazol-1-yl]-1,2,4-oxadiazol-5-yl}-1,4′-bipiperidin-1'-yl)-2-hydroxyethanone hydrochloride], the IC50 was 93.7 nM.
As for `CC(C)(C)c1nn(-c2noc(C3CCN(C4CCN(C(=O)CO)CC4)CC3)n2)c2ccccc12` [Example 522, 1-{4-[3-(3-tert-butyl-1H-indazol-1-yl)-1,2,4-oxadiazol-5-yl]-1,4′-bipiperidin-1′-yl}-2-hydroxyethanone], the IC50 is 222 nM.
In the case of `CC(C)c1nn(-c2noc(C3CCN(C4CCN(C(=O)CO)CC4)CC3)n2)c2c(F)c(O)ccc12` [Example 552, 1-(4-{3-[7-fluoro-6-hydroxy-3-(propan-2-yl)-1H-indazol-1-yl]-1,2,4-oxadiazol-5-yl}-1,4′-bipiperidin-1′-yl)-2-hydroxyethanone], the IC50 is 179 nM.
On to `CC(C)c1nn(-c2noc(C3CCN(C4CCN(C(=O)CO)CC4)CC3)n2)c2c(F)ccc(O)c12` [Example 553, 1-(4-{3-[7-fluoro-4-hydroxy-3-(propan-2-yl)-1,1′-indazol-1-yl]-1,2,4-oxadiazol-5-yl}-1,4′-bipiperidin-1′-yl)-2-hydroxyethanone], for which the IC50 is 18.7 nM.
Take `CC(=O)N1CCC(N2CCC(c3nc(-n4nc(C(C)C)c5ccc(O)c(F)c54)no3)CC2)CC1` [Example 554, 1-(4-{3-[7-fluoro-6-hydroxy-3-(propan-2-yl)-1H-indazol-1-yl]-1,2,4-oxadiazol-5-yl}-1,4′-bipiperidin-1′-yl)ethanone]: the IC50 stood at 190 nM.
